Measured values as given in PMC9144027, “Evaluation of a Thermophilic, Psychrostable, and Heavy Metal-Resistant Red Sea Brine Pool Esterase” (Marine Drugs, 2022).

System: T1, EstATII-TM (EstATII, A126V)
T1 construct: full ORF (945 bp) in pET-SUMO, His-tagged SUMO fusion, E. coli BL21(DE3), Ni column; 55 kDa; tag cleavage not mentioned; KC958722 is the wild-type nucleotide record; tested form carries A126V
Assay: p-nitrophenol release at […] nm, nonlinear Michaelis-Menten fit
Type: biochemical, uncultured bacterium
Conditions: 30 °C, pH 7.5; substrate range 0.01-1 mM; no added metal; Table 1 prints 0.03 (±0.01) μmol; unit doubtful (substrate range suggests mM)

Km: 0.0303 mM
Compound: CCCC(=O)Oc1ccc([N+](=O)[O-])cc1 [p-nitrophenyl butyrate]
